# Test results as given in patent US20260345582A1, “PRODRUG FOR ANTI-AGING RELATED DISEASES AND USE METHOD THEREOF” (Beijing SunCell Bio-Medical Co., Ltd., priority 2022, published 2026).
# Entries after “also recorded” stand apart in the source; their conditions may differ.
# Assays:
# [1] = observation of status and clinical manifestations of mice during multiple rounds of administration; type: in vivo, C57 mice; settings: for mice depilated, dispirited and in poor state: after 3 consecutive rounds
# Method: B. The schematic diagram of the multiple dosing and the subsequent blood routine examinations in mice. The drug was administered on 3 consecutive days per week, followed by a 4-day interval, for 3 weeks continuous administration. The drug was administered by intraperitoneal injection in the afternoon on days 0, 1, 2, 7, 8, 9, 14, 15, and 16, and the blood was collected and tested in the morning on days 1, 3, 5, 8, 10, 12, 15, 17, and 19, respectively.
# (§1) A single administration of A13 or A13bG was performed. Female 5-6 week old C57 mice were treated with a single intraperitoneal injection. A13 and A13bG were administered in three different dose groups of 2, 5, and 20 mg/kg. Approximately 50 μl of blood was collected from each mouse at different time points into the EDTA tubes (RAM Scientific) by means of inner canthal blood extraction, and analyzed using a haematology analyzer for a blood routine examination and a platelet counting. Multiple administrations of A13 or A13bG were performed. Female 5-6 week old C57 mice were treated with multiple intraperitoneal injections. A13 and A13bG were administered in three different dose groups of 2, 5 and 20 mg/kg, three consecutive days per week, followed by a 4-day withdrawal for 3 weeks. The time points of administration were in the afternoon of days 0, 1, 2, 7, 8, 9, 14, 15, and 16, and the time points of blood collection and testing were in the morning of days 1, 3, 5, 8, 10, 12, 15, 17, and 19, respectively.
# [2] = system: HUVEC cells (human umbilical vein endothelial cell line); experiment: in vitro killing of induced senescent HUVEC cells (CCK-8); type: cell-based; settings: vascular endothelial-derived, FIG. 3F
# Excerpt: (§2) Induction of the Cellular Senescence
# [3] = system: HELF cells (primary human embryonic lung fibroblast); experiment: in vitro killing of induced senescent HELF cells (CCK-8); type: cell-based; settings: lung-derived, FIG. 3C
# Excerpt: as §2
# [4] = system: platelets in peripheral blood; experiment: in vivo platelet toxicity test, single intraperitoneal injection; design: species or system C57 mice; settings: FIG. 4A
# Excerpt: A. Results of the platelet counts in peripheral blood on days 1, 3, 5, 8, and 10 after a single intraperitoneal injection of different doses of the given drug. Each dot in the panel represents the count of platelets detected in 1 mouse at that time point (n=4 mice); A13 represents the parent compound A1331852 administration group, and A13bGa1 represents the prodrug obtained after the β-gal modification of A13, and mpk represents the milligram dose per kilogram of the body weight. There were three different dose groups of 2, 5, and 20 mg/kg for both A13 and A13bGa1 administration. The dashed line in the panel indicates the mean value of the platelet counts of the mice in the control single vehicle administration group.
# In Vivo Platelet Toxicity Test
# as §1, with “The time points of administration were in the afternoon of days 0, 1, 2, 7, 8, 9, 14, 15, and 16, and the time points of blood collection and testing were in the morning of days 1, 3, 5, 8, 10, 12, 15, 17, and 19, respectively.” left out
# For a blood routine examination, 50 μl of fresh blood was collected from each mouse and immediately mixed with EDTA. Blood samples were analyzed by Celltac Alpha MEK-6400 series haematology analyzer (Nihon Kohden, MEK-6400). Data were expressed as the number of different blood cells or platelets per μl of blood. […] A 200 μl of serum was aliquoted and analyzed for alanine aminotransferase (ALT), aspartate aminotransferase (AST), uric acid (UA), and creatinine (CREA) by a chemistry analyzer (Mindray, BS-350E).
# [5] = liver microsomal metabolic stability, mouse
# Method: (§3) Hepatic Microsomal Metabolic Stability
# A13bGa1 was co-incubated with the mouse, rat, canine, monkey and human […] and the incubation medium at a final drug concentration of 1 μM in the incubation system for 60 minutes. Samples were taken and analyzed at time points 0, 15, 30, 45 and 60 minutes during the incubation. The reaction was terminated by adding an amount of acetonitrile solution containing the internal standard. […] The residual percentage, half-life, intrinsic clearance, amplified clearance, hepatic clearance and hepatic extraction ratio were determined. The entire experiment was performed in triplicate. All data calculations were performed by Microsoft Excel software. Peak areas were detected by extracting the ionic spectrum. The in vitro half-life (t1/2) of the parent compound was detected by fitting the natural logarithm of the percentage elimination of the parent compound linearly to time.
# The in vitro intrinsic clearance (in μL/min/mg protein) was calculated using the following equation: in vitro CLint=kV/N
# The amplified clearance (in mL/min/kg) was calculated using the following equation: Amplified CLint=kV/N×the amplification factor
# The hepatic clearance (in mL/min/kg) was calculated using the following equation: The predicted hepatic CLH=(Q×Fu/RB×the amplified CLint)/(Q+Fu/RB×the amplified CLint) • V=the incubation volume per well (0.2 mL); • N=the total amount of protein (mg) • Q=the hepatic blood flow (mL/min/kg) • Fu=the plasma free rate (assumed to be 1) • RB=the whole blood partition coefficient (assumed to be 1)
# The hepatic uptake rate was calculated using the following equation:
# The hepatic extraction ratio (ER)=(the predicted hepatic CLH)/Q
# [6] = liver microsomal metabolic stability, all species; type: in vitro ADME, rat and mouse; settings: human, monkey, canine, rat, mouse; Table 4
# Method: as §3
# The entire experiment was performed in triplicate. All data calculations were performed by Microsoft Excel software. Peak areas were detected by extracting the ionic spectrum.
# The in vitro half-life (t1/2) was calculated by slope: in vitro t½=0.693/k
# [7] = system: mouse model of Bleomycin-induced pulmonary fibrosis; experiment: Bleomycin-induced pulmonary fibrosis model, overall therapeutic effect; type: in vivo, C57 mice; settings: 5 mg/kg i.p., four weeks
# Method: A. Modelling of a mouse model of Bleomycin-induced pulmonary fibrosis, and the schematic diagram of treatment. Mice were modelled with Bleomycin administered via tracheal instillation on day 0, and the treatment with intraperitoneal injection of the drug was started on day 4. The drug was administered for 3 consecutive days per week, followed by a 4-day withdrawal, for 4 weeks.
# All drugs were mixed in 85% physiological saline, 5% DMSO (Sigma, D8418) and 10% Solutol HS 15 (Sigma, 42966), and administered to mice by intraperitoneal (i.p.) injection. To treat the bleomycin-injured young mice, A13 (2 mg/kg), A13bGa1 (5 mg/kg), or an empty vehicle control was administered three consecutive days per week for four weeks. A1331852 (abbreviated as A13) was purchased from MCE.
# Bleomycin-Induced Pulmonary Fibrosis
# Bleomycin was purchased from Selleck. As previously reported (Bivas-Benita et al., Eur J Pharm Biopharm 61, 214-218 (2005)), a transtracheal injection of bleomycin (2 mg/kg) was performed to the young male C57 mice (8-10 weeks old) to induce lung fibrosis. Drug treatment was initiated four days after modelling, and the drug was administered three consecutive days per week for four consecutive weeks, after which the mice were executed for material collection.
# [8] = single intraperitoneal administration, 2, 5, 20 mg/kg
"mice depilated, dispirited and in poor state ([1]; 5 mg/kg dose group)","mice depilated, dispirited and in poor state ([1]; 20 mg/kg dose group)",Structure (SMILES),"status and clinical manifestations (abnormalities) ([1]; 5 mg/kg and 20 mg/kg, 3 consecutive weeks, FIG. 4D)","killing of the senescent cells, efficiency and selectivity [2]","killing of the senescent cells, efficiency and selectivity [3]","platelet toxicity compared with the parent compound A13 [4, 8]","platelet-destroying effect [4, 8]",effect on the magnitude of the platelet changes in peripheral blood compared with A13 ([4]; single intraperitoneal administration),The hepatic extraction ratio (E) [5],"The intrinsic clearance in vitro Clint ([5]; 1 μM, 60 min)",The predicted intrinsic hepatic clearance Clint ([5]; Fu and RB assumed to be 1),CLint scaled at 1 µM ([5]; microsomes),"half-life at 1 h, 1 µM ([5]; microsomes)",liver microsomal metabolic stability [6],anti-inflammatory and anti-fibrotic therapeutic effects [7]
2 out of 4,2 out of 4,"Cc1c(-c2ccc(N3CCc4cccc(C(=O)Nc5nc6ccccc6s5)c4C3)nc2C(=O)O)cnn1CC12CC3CC(CC(C3)C1)C2 [Compound A13, 3-[1-(adamantan-1-ylmethyl)-5-methylpyrazol-4-yl]-6-{8-[(1,3-benzothiazol-2-yl)carbamoyl]-3,4-dihydro-1H-isoquinolin-2-yl}pyridine-2-carboxylic acid]","depilated, dispirited and in poor state; also recorded: hair loss and depression",,,,,,,,,,,,
,,Cc1c(-c2ccc(N3CCc4cccc(C(=O)Nc5nc6ccccc6s5)c4C3)nc2C(=O)OCc2ccc(O[C@@H]3O[C@H](CO)[C@H](O)[C@H](O)[C@H]3O)c([N+](=O)[O-])c2)cnn1CC12CC3CC(CC(C3)C1)C2 [Compound A13bGa1],,highly efficient and selective in killing the senescent cells,highly efficient and selective in killing the senescent cells,significantly less toxic to the platelets than the parent compound A13,strong platelet-destroying effect only at the higher dose of 20 mg/kg,significantly less than that of A13,0.40,13.79 μL/min/mg protein,36.24 mL/min/kg,60.7 mL/min/kg,1.68 h,good moderate metabolic stability,good anti-inflammatory and anti-fibrotic therapeutic effects
